Consider 24 molecules from patent US20250382305A1 (PTC THERAPEUTICS, INC., priority 2022, published 2025).

What is called IC50 is the point on the concentration scale where inhibition reaches its midpoint.

For experiment [1], the system named is Total ATXN3 (tATXN3) protein. The experiment is described as follows: Endogenous Total ATXN3 (tATXN3) Protein Assay (MSD immunoassay of cell lysates). As to conditions: average IC50, total ATXN3 protein in cell lysate after 48 h with compound (Table 1). The class given is cell-based. The gist of the method:
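Cells in DMEM/10% FBS were plated at 10,000 per well onto 7-point, 3.16-fold compound dilutions in duplicate for 48 h at 37° C, then lysed. Total ATXN3 in lysates was measured by MSD sandwich immunoassay: mouse anti-ATXN3 capture, rabbit anti-ATXN3 detection, SULFO-TAG anti-rabbit. Average IC50 was reported in star bins.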

In the next experiment the test system is ATXN3 pre-mRNA. The experiment is described as follows: RT-qPCR Assay to Quantify Exon 4 Skipping in ATXN3 pre-mRNA in Cells. Type of experiment: cell-based. As to conditions: percent exon 4 skipping in ATXN3 pre-mRNA, RT-qPCR of cell lysates; average IC50. Put shortly: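 Cells plated at 10,000/well onto a 7-point, 3.16-fold DMSO dilution series (duplicates), incubated 24 h at 37 °C, then lysed. Exon 4 skipping measured by one-step RT-qPCR (48 °C RT, 40 cycles); IC50 interpolated from dose-response fit of percent skipping.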

On to `N[C@@H]1CCCC(F)(F)[C@@H]1c1sc2c(NCc3cccs3)cc(Cl)nc2c1Br.N[C@H]1CCCC(F)(F)[C@H]1c1sc2c(NCc3cccs3)cc(Cl)nc2c1Br` (mixture of isomers) [Compound 359, 2-((1R,6R)-6-amino-2,2-difluorocyclohexyl)-3-bromo-5-chloro-N-(thiophen-2-ylmethyl)thieno[3,2-b]pyridin-7-amine and 2-((1S,6S)-6-amino-2,2-difluorocyclohexyl)-3-bromo-5-chloro-N-(thiophen-2-ylmethyl)thieno[3,2-b]pyridin-7-amine], for which the IC50 (in experiment [1]; with ATXN3 pre-mRNA) was 0.03 to 0.3 µM in each case.

Regarding “2-((3R,4S)-3-aminotetrahydro-2H-pyran-4-yl)-N-benzyl-3,5-dichlorothieno[3,2-b]pyridin-7-amine and 2-((3S,4R)-3-aminotetrahydro-2H-pyran-4-yl)-N-benzyl-3,5-dichlorothieno[3,2-b]pyridin-7-amine [Compound 388]”, the IC50 (in experiment [1]; in the experiment on ATXN3 pre-mRNA) was 0.03 to 0.3 µM in each case.

With “6-((3R,4S)-3-aminotetrahydro-2H-pyran-4-yl)-2-chloro-N-(furan-2-ylmethyl)-7-iodothieno[3,2-d]pyrimidin-4-amine and 6-((3S,4R)-3-aminotetrahydro-2H-pyran-4-yl)-2-chloro-N-(furan-2-ylmethyl)-7-iodothieno[3,2-d]pyrimidin-4-amine [Compound 245]”, the IC50 (in experiment [1]; in the experiment on ATXN3 pre-mRNA) was at most 0.03 µM each time.

On to `Cc1c([C@H]2OCCC[C@@H]2N)sc2c(NCc3ccccc3)nc(Cl)nc12` [Compound 63, 6-((2S,3S)-3-aminotetrahydro-2H-pyran-2-yl)-N-benzyl-2-chloro-7-methylthieno[3,2-d]pyrimidin-4-amine], for which the IC50 (in experiment [1]; with ATXN3 pre-mRNA) was 0.03 to 0.3 µM in each case.

Regarding `N[C@H]1CCCCCC[C@H]1c1sc2c(NCc3cccs3)cc(Cl)nc2c1Cl` [Compound 91, 2-((1R,2S)-2-aminocyclooctyl)-3,5-dichloro-N-(thiophen-2-ylmethyl)thieno[3,2-b]pyridin-7-amine], the IC50 (in experiment [1]; in the experiment on ATXN3 pre-mRNA) was above 1 µM in each case.

Regarding `N[C@@H]1CCCC[C@H]1c1sc2c(NCc3cccs3)cc(Cl)nc2c1Cl` (single isomer, unassigned) [Compound 36, 2-((1R,2R)-2-aminocyclohexyl)-3,5-dichloro-N-(thiophen-2-ylmethyl)thieno[3,2-b]pyridin-7-amine or 2-((1S,2S)-2-aminocyclohexyl)-3,5-dichloro-N-(thiophen-2-ylmethyl)thieno[3,2-b]pyridine-7-amine], the IC50 (in experiment [1]; with ATXN3 pre-mRNA) was above 1 µM each time.

For the molecule `N[C@@H]1CCCC(F)(F)[C@H]1c1sc2c(NCc3ccco3)nc(Cl)nc2c1Br` [Compound 412, 6-((1S,6R)-6-amino-2,2-difluorocyclohexyl)-7-bromo-2-chloro-N-(furan-2-ylmethyl)thieno[3,2-d]pyrimidin-4-amine], the IC50 (in experiment [1]; in the experiment on ATXN3 pre-mRNA) was 0.3 to 1 µM in each case.

“6-((1S,6S)-6-aminocyclohex-3-en-1-yl)-4-((furan-2-ylmethyl)amino)-7-methylthieno[3,2-d]pyrimidine-2-carbonitrile [Compound 282]”: the IC50 (in experiment [1]; in the experiment with ATXN3 pre-mRNA) was 0.03 to 0.3 µM each time.

In the case of `CN(Cc1cccs1)c1cc(Cl)nc2c(C#CCCCO)c([C@@H]3CC=CC[C@H]3N)sc12` [Compound 451, 5-(2-((1R,6R)-6-aminocyclohex-3-en-1-yl)-5-chloro-7-(methyl(thiophen-2-ylmethyl)amino)thieno[3,2-b]pyridin-3-yl)pent-4-yn-1-ol], the IC50 (in experiment [1]; in the experiment on ATXN3 pre-mRNA) was 0.03 to 0.3 µM each time.

For the molecule `N[C@H]1CC=CC[C@@H]1c1sc2c(NCc3ccccc3)nc(Cl)nc2c1Br` [Compound 241, 6-((1S,6S)-6-aminocyclohex-3-en-1-yl)-N-benzyl-7-bromo-2-chlorothieno[3,2-d]pyrimidin-4-amine], the IC50 (in experiment [1]; with ATXN3 pre-mRNA) was at most 0.03 µM each time.

On to `N[C@@H]1CC=CC[C@H]1c1sc2c(NCc3cccs3)nc(Cl)nc2c1Br` [Compound 385, 6-((1R,6R)-6-aminocyclohex-3-en-1-yl)-7-bromo-2-chloro-N-(thiophen-2-ylmethyl)thieno[3,2-d]pyrimidin-4-amine], for which the concentration for half-maximal inhibition (IC50) (in experiment [1]; in the experiment with ATXN3 pre-mRNA) was 0.03 to 0.3 µM each time.

`N[C@H]1CC=CC[C@@H]1c1sc2c(NCc3ccncc3)cc(Cl)nc2c1Br` [Compound 198, 2-((1S,6S)-6-aminocyclohex-3-en-1-yl)-3-bromo-5-chloro-N-(pyridin-4-ylmethyl)thieno[3,2-b]pyridin-7-amine]: the IC50 (in experiment [1]; in the experiment on ATXN3 pre-mRNA) was at most 0.03 µM in each case.

“2-((1R,6R)-6-aminocyclohex-3-en-1-yl-2,2,3,4,5,5-d6)-N-benzyl-5-chloro-3-methylthieno[3,2-b]pyridin-7-amine and 2-((1S,6S)-6-aminocyclohex-3-en-1-yl-2,2,3,4,5,5-d6)-N-benzyl-5-chloro-3-methylthieno[3,2-b]pyridin-7-amine [Compound 278]”: the IC50 (in experiment [1]; with ATXN3 pre-mRNA) was 0.03 to 0.3 µM each time.

For the molecule `N[C@H]1COCC[C@@H]1c1sc2c(NCc3cccs3)cc(Cl)nc2c1Br` [Compound 139, 2-((3R,4S)-3-aminotetrahydro-2H-pyran-4-yl)-3-bromo-5-chloro-N-(thiophen-2-ylmethyl)thieno[3,2-b]pyridin-7-amine], the IC50 in experiment [1] is 0.03 to 0.3 µM; in the experiment with ATXN3 pre-mRNA, at most 0.03 µM.

For `Cc1c([C@@H]2CCCCC[C@@H]2N)sc2c(NCc3cccs3)cc(Cl)nc12` [Compound 82, 2-((1R,2S)-2-aminocycloheptyl)-5-chloro-3-methyl-N-(thiophen-2-ylmethyl)thieno[3,2-b]pyridin-7-amine], the IC50 (in experiment [1]; in the experiment on ATXN3 pre-mRNA) was 0.3 to 1 µM each time.

With `N[C@H]1CCCO[C@@H]1c1c(Cl)c2nc(Cl)nc(NCc3ccco3)c2n1C(F)F` [Compound 244, 6-((2S,3S)-3-aminotetrahydro-2H-pyran-2-yl)-2,7-dichloro-5-(difluoromethyl)-N-(furan-2-ylmethyl)-5H-pyrrolo[3,2-d]pyrimidin-4-amine], the IC50 (in experiment [1]; with ATXN3 pre-mRNA) was at most 0.03 µM throughout.

Regarding `N[C@H]1CCCO[C@@H]1c1sc2c(NCc3cccs3)cc(Cl)nc2c1C#CCO` (mixture of isomers) [Compound 252, 3-(2-((2R,3R)-3-aminotetrahydro-2H-pyran-2-yl)-5-chloro-7-((thiophen-2-ylmethyl)amino)thieno[3,2-b]pyridin-3-yl)prop-2-yn-1-ol and 3-(2-((2S,3S)-3-aminotetrahydro-2H-pyran-2-yl)-5-chloro-7-((thiophen-2-ylmethyl)amino)thieno[3,2-b]pyridin-3-yl)prop-2-yn-1-ol], the IC50 in experiment [1] was 0.03 to 0.3 µM; in the experiment on ATXN3 pre-mRNA it was at most 0.03 µM.

Take `N[C@@H]1CCC[C@H]1c1sc2c(NCc3cccs3)cc(Cl)nc2c1Cl` [Compound 2, 2-((1R,2R)-2-aminocyclopentyl)-3,5-dichloro-N-(thiophen-2-ylmethyl)thieno[3,2-b]pyridin-7-amine]: the IC50 (in experiment [1]; in the experiment with ATXN3 pre-mRNA) was above 1 µM throughout.

Regarding `Cc1c([C@H]2CCCC[C@H]2N)sc2c(NCc3cccs3)cc(Cl)nc12` [Compound 51, 2-((1S,2R)-2-aminocyclohexyl)-5-chloro-3-methyl-N-(thiophen-2-ylmethyl)thieno[3,2-b]pyridin-7-amine], the IC50 (in experiment [1]; in the experiment with ATXN3 pre-mRNA) was above 1 µM each time.

As to `N[C@H]1CC=CC[C@@H]1c1sc2c(NCc3ccco3)cc(Cl)nc2c1I` [Compound 188, 2-((1S,6S)-6-aminocyclohex-3-en-1-yl)-5-chloro-N-(furan-2-ylmethyl)-3-iodothieno[3,2-b]pyridin-7-amine], the IC50 (in experiment [1]; in the experiment with ATXN3 pre-mRNA) was at most 0.03 µM in each case.

In the case of `N[C@@H]1CCCO[C@H]1c1sc2c(NCc3cccs3)cc(Cl)nc2c1Br` [Compound 49, 2-((2R,3R)-3-aminotetrahydro-2H-pyran-2-yl)-3-bromo-5-chloro-N-(thiophen-2-ylmethyl)thieno[3,2-b]pyridin-7-amine], the IC50 (in experiment [1]; in the experiment on ATXN3 pre-mRNA) was above 1 µM in each case.

Consider `N[C@H]1CC=CC[C@@H]1c1sc2c(NCc3ccncc3F)nc(Cl)nc2c1Cl` [Compound 236, 6-((1S,6S)-6-aminocyclohex-3-en-1-yl)-2,7-dichloro-N-((3-fluoropyridin-4-yl)methyl)thieno[3,2-d]pyrimidin-4-amine], for which the IC50 (in experiment [1]; with ATXN3 pre-mRNA) was at most 0.03 µM throughout.

On to `N[C@@H]1CCCC[C@H]1c1sc2c(NCc3cccs3)cc(Cl)nc2c1C(F)(F)F.N[C@H]1CCCC[C@@H]1c1sc2c(NCc3cccs3)cc(Cl)nc2c1C(F)(F)F` (mixture of isomers) [Compound 356, 2-((1S,2S)-2-aminocyclohexyl)-5-chloro-N-(thiophen-2-ylmethyl)-3-(trifluoromethyl)thieno[3,2-b]pyridin-7-amine and 2-((1R,2R)-2-aminocyclohexyl)-5-chloro-N-(thiophen-2-ylmethyl)-3-(trifluoromethyl)thieno[3,2-b]pyridin-7-amine], for which the IC50 (in experiment [1]; in the experiment with ATXN3 pre-mRNA) was 0.03 to 0.3 µM throughout.

In the case of `N[C@@H]1CCCCCC[C@@H]1c1cc2nc(Cl)cc(NCc3cccs3)c2s1` [Compound 106, 2-((1S,2R)-2-aminocyclooctyl)-5-chloro-N-(thiophen-2-ylmethyl)thieno[3,2-b]pyridin-7-amine], the IC50 (in experiment [1]; in the experiment with ATXN3 pre-mRNA) was above 1 µM throughout.
